# Test results as given in Sander's compilation of Henry's law constants (doi:10.1002/etc.5620201008).
# Where “and” joins values, the source holds several entries; their conditions need not be identical. Equal values may be shown once.
# Columns and labels:
# Conditions in all cases: reference: Kochetkov et al. (2001)
# [1] = Henry solubility constant Hcp at 300 K (mol/(m3 Pa))
# [2] = Henry solubility constant Hcp at 299 K (mol/(m3 Pa))
# [3] = Henry solubility constant Hcp at 301 K (mol/(m3 Pa))
Structure (SMILES),Henry solubility constant Hcp at 300 K [1],Henry solubility constant Hcp at 299 K [2],also measured
C[Si](C)(C)O[Si](C)(C)O[Si](C)(C)C [octamethyltrisiloxane],3.3e-06 and 2.7e-06,,
C[Si](C)(C)O[Si](C)(C)C [hexamethyldisiloxane],0.00017 and 0.00031,,
c1ccccc1 [benzene],,,Henry solubility constant Hcp at 301 K [3]: 0.0021 and 0.0017

# The next lines start with results.
Henry solubility constant Hcp at 300 K [1],Henry solubility constant Hcp at 299 K [2],Structure (SMILES),also measured
,6.8e-05 and 0.00015,C[Si]1(C)O[Si](C)(C)O[Si](C)(C)O[Si](C)(C)O[Si](C)(C)O[Si](C)(C)O1 [dodecamethylcyclohexasiloxane],
,3.4e-05 and 3.1e-05,C[Si]1(C)O[Si](C)(C)O[Si](C)(C)O[Si](C)(C)O[Si](C)(C)O1 [decamethylcyclopentasiloxane],
5.8e-07,,C[Si](C)(C)O[Si](C)(C)O[Si](C)(C)O[Si](C)(C)C [decamethyltetrasiloxane],
